Reference: patent publication US20200113852A1, “METHODS OF PATIENT SELECTION AND TREATING TRXR- OR PRDX-OVEREXPRESSED CANCERS” (TRIACT THERAPEUTICS, INC., priority 2017, published 2020)

What was measured:
HCT116 cells = assay: Iniparib metabolites release, XLC-MS/MS of incubation media; assay type: in vitro ADME, human; design: unit not given beside the values; settings: HCT116 w BSO
Experimental: (§1) Online solid phase extraction (SPE) was performed using the fully automated Spark Holland Symbiosis™ (Emmen, The Netherlands) in eXtraction Liquid Chromatography (XLC) mode. The Symbiosis™ has previously been described in detail (18). HySphere™ C18 HD 7 μm SPE cartridges were used (Spark Holland). Each cartridge was initially conditioned with 2 ml methanol+0.5% formic acid (FA) and then equilibrated with 2 ml water+0.5% FA, both at flow-rates of 4 ml/min. Sample (25 μl) was aspirated and loaded onto the cartridge with 1 ml water+0.5% FA at a flow-rate of 1 ml/min. […] After elution, the right clamp was washed successively with 2 ml water+0.5% FA, 2 ml methanol+0.5% FA and 2 ml water+0.5% FA at 4 ml/min. […] The mobile phase composition was returned to starting conditions over 1 min and maintained during 6 min for column equilibration. The total run time was 27 min. Mass spectrometry was performed using the Thermo® TSQ Quantum Discovery Max in electrospray positive ionization mode (Thermo, US) with the following parameters: capillary voltage=4.0 kV, capillary temperature=300° C., sheath gas pressure=40, auxiliary gas pressure=5.
(§2) All values are expressed as means±SEM of three independent experiments. ND., non detectable.

[1] = tested on: several cancer cell lines; assay: Cytotoxic activity on several cancer cell lines (preliminary screening); settings: all cell lines
[2] = target: T1, human recombinant glutathione S-transferase pi (GSTP1) (Homo sapiens, UniProt P09211); assay: In vitro Iniparib-glutathione conjugation; assay type: biochemical; settings: 30 μM, 1 mM GSH, absence of GSTP1
T1 construct: purchased Acris
Experimental: as §1

MDA-MB-453 cells = assay: Iniparib metabolites release, XLC-MS/MS of incubation media; assay type: in vitro ADME, human; design: unit not given beside the values
Experimental: as §1, §2

recombinant human GAPDH = target: T2, recombinant human GAPDH (Homo sapiens, UniProt P04406); assay: In vitro modification of GAPDH by Iniparib and I-NOBA; assay type: binding
T2 construct: purchased Acris
Experimental: For biochemical analysis, recombinant human GAPDH (Acris) was first reduced by a 15,000-fold excess of DTT at 56° C. for 30 min, the reducing agent being removed thereafter by chloroform/methanol precipitation. […] Afterwards the samples were submitted or not to another reducing step with 25 mM DTT (56° C., 30 min), and after removal of DTT by chloroform/methanol precipitation, biotinylation of free cysteine sulfhydryl groups of GAPDH was performed with HPDP-biotin (N-[6-(Biotinamido)hexyl]-3′-(2′-pyridyldithio)propionamide) at […] for 2 h at 20° C.
Sample mixtures were then reduced or not with 25 mM DTT (56° C., 30 min). Intact molecular weights were measured by mass spectrometry. Liquid chromatography-electrospray ionization mass spectrometry (LC/MS) was carried out using LTQ-Orbitrap Elite mass spectrometer (Thermo Fisher Scientific) coupled to a Famos Autosampler and an Ultimate Pump (LC-Packing, Dionex). Reverse phase chromatography was performed with a binary buffer system consisting of 0.2% formic acid (buffer A) and 80% acetonitrile in 0.2% formic acid (buffer B). After dilution to 1 pmole/μl in 0.2% formic acid, 1 μl of samples were loaded on a Poros 1 R/H column (75 μm×15 cm, Dionex). […] Mass spectra (m/z 500-2,000) were acquired in the positive ITMS mode with 5 μscans accumulation, a target value of 30,000 and a maximum injection time of 100 ms. The acquired raw files were converted in MassLynx format (Waters) using an home-made program and then were deconvoluted using MaxEnt software (Waters).

[3] = Phase I clinical trial GBM, pharmacokinetics; assay type: in vivo, human; settings: for Cmax: geometric mean±SD, plasma; for Metabolite/iniparib concentration ratio: arithmetic average±SD
From the text: No cytochrome P450-inducing anticonvulsants. However, Gliadel was permitted.
Dosing is IV 2×/week continuous.

[4] = tested on: Trx, JNK, p38MAPK, PARP in HCT116 cells; assay: Cell death signaling western blots (Trx oxidation, phospho-JNK, phospho-p38MAPK, cleaved-PARP)
Experimental: Cells extracts were analyzed by SDS-PAGE either under reducing conditions or under non-reducing conditions in the case of Trx blot followed by blots anti-phospho-JNK, anti-phospho-p38MAPK, anti-cleaved-PARP and anti-Trx. Results are representative of three independent experiments.
After 2 h at 4° C., lysates were clarified by centrifugation and protein amounts were measured using the BCA assay (Pierce, Thermo scientific).
Equal amounts of proteins were resolved by SDS-PAGE under either non-reducing or reducing (5% 2-mercaptoethanol, 20 min at 60° C.) conditions, using 4-20% gels (Novex, Invitrogen), then subjected to semi-dry electrophoretic transfer onto nitrocellulose membranes.

T2 sequence (P04406 whole entry): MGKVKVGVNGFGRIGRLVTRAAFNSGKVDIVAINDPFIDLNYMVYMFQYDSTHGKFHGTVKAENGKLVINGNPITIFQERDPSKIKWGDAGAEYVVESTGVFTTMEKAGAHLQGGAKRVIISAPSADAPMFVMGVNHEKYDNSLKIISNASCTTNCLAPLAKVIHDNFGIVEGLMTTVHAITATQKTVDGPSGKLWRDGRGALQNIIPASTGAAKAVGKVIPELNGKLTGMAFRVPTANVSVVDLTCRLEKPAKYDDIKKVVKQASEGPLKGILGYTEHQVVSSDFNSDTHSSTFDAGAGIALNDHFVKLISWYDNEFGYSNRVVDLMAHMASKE
T1 sequence (P09211 whole entry): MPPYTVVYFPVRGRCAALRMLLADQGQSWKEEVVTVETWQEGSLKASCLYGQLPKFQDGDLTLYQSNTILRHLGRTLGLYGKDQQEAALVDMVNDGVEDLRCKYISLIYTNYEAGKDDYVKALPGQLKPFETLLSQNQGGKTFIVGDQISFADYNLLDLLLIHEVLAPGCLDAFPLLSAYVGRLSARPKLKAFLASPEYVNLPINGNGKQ

Which “Iniparib and metabolites in incubation media” value (shortened to “Iniparib and metabolites”) (HCT116 cells; 24 h after 100 μM Iniparib) does the source give for NC(=O)c1ccc(I)c(NO)c1 [I-HABM] here?
The value was 0.1 ± 0.0.

Which “cytotoxic activity relative to Iniparib” value [1] does the source give for NC(=O)c1ccc(I)c(N=O)c1 [I-NOBA] here?
The value was “more active than Iniparib”.

And the “reaction with GSH” value [2]?
The value was “reacted with GSH”.

And the “Iniparib and metabolites” value (MDA-MB-453 cells; MDA-MB-453 w BSO, 1 h after 100 μM Iniparib)?
Its value is 0.6 ± 0.1.

What about the “Iniparib and metabolites” value (MDA-MB-453 cells; MDA-MB-453 w BSO, 5 h after 100 μM Iniparib) of the same compound?
Its value is 3.5 ± 0.7.

And the “Iniparib and metabolites” value (MDA-MB-453 cells; MDA-MB-453 w BSO, 24 h after 100 μM Iniparib)?
The value was 2.9 ± 1.0.

And the “Iniparib and metabolites” value (MDA-MB-453 cells; MDA-MB-453 w/o BSO, 24 h after 100 μM Iniparib)?
Its value is 0.2 ± 0.1.

What about the “Iniparib and metabolites” value (HCT116 cells; 1 h after 100 μM Iniparib) of the same compound?
Its value is 4.4 ± 0.0.

And the “Iniparib and metabolites” value (HCT116 cells; 5 h after 100 μM Iniparib)?
Its value is 14.6 ± 0.1.

And the “Iniparib and metabolites” value (HCT116 cells; 24 h after 100 μM Iniparib)?
The value was 26.5 ± 2.9.

And the “covalent modification of GAPDH (MS analysis)” value (recombinant human GAPDH; purified GAPDH incubated with compound)?
Its value is “formation of protein adducts”.

And the “blocking of free thiol groups in GAPDH” value (recombinant human GAPDH; purified GAPDH, biotin-HPDP labeling, streptavidin-HRP blot)?
Its value is “completely blocked”.

With Nc1cc(C(=O)O)ccc1I [IABA] as the compound, how does the Cmax ([3]; 5.1 mg/kg IV 2×/week) read?
The Cmax was 16.6 ± 5.2 ng/mL.

What about the Metabolite/iniparib concentration ratio ([3]; 5.1 mg/kg) of the same compound?
Its Metabolite/iniparib concentration ratio is 3.0 ± 2.0%.

And the Cmax ([3]; 6.1 mg/kg IV 2×/week)?
The Cmax was 14.9 ± 8.3 ng/mL.

And the Metabolite/iniparib concentration ratio ([3]; 6.1 mg/kg)?
The Metabolite/iniparib concentration ratio was 2.0 ± 1.5%.

And the Cmax ([3]; 6.8 mg/kg IV 2×/week)?
The Cmax was 19.9 ± 6.6 ng/mL.

And the Metabolite/iniparib concentration ratio ([3]; 6.8 mg/kg)?
Its Metabolite/iniparib concentration ratio is 2.4 ± 1.4%.

And the Cmax ([3]; 8.0 mg/kg IV 2×/week)?
The Cmax was 14.5 ± 15.0 ng/mL.

What about the Metabolite/iniparib concentration ratio ([3]; 8.0 mg/kg) of the same compound?
Its Metabolite/iniparib concentration ratio is 0.7 ± 0.7%.

What about the Cmax ([3]; 8.6 mg/kg IV 2×/week) of the same compound?
Its Cmax is 31.5 ± 10.4 ng/mL.

And the Metabolite/iniparib concentration ratio ([3]; 8.6 mg/kg)?
The Metabolite/iniparib concentration ratio was 2.5 ± 1.4%.

What about the Cmax ([3]; 9.5 mg/kg IV 2×/week) of the same compound?
Its Cmax is 19.8 ± 14.0 ng/mL.

And the Metabolite/iniparib concentration ratio ([3]; 9.5 mg/kg)?
The Metabolite/iniparib concentration ratio was 2.0 ± 2.0%.

For CN[C@@H]1C[C@H]2O[C@@](C)([C@@H]1OC)n1c3ccccc3c3c4c(c5c6ccccc6n2c5c31)C(=O)NC4 [staurosporine, reference compound], which PARP1 cleavage ([4]; GSH-depleted HCT116) is on record?
Its PARP1 cleavage is “triggered PARP1 cleavage”.

And the Trx oxidation ([4]; GSH-depleted HCT116, 7 h or 24 h, 100 μM Iniparib, 1 μM Auranofin, 100 nM Staurosporin)?
Its Trx oxidation is “unable to induce oxidation of Trx”.
